Test results: patent US20200385398A1, “NEW BICYCLIC DERIVATIVES” (Elanco Tiergesundheit AG, priority 2019, published 2020)

Tested on: D. immitis microfilariae
Test: Dog heart worm microfilariae motility assay
Format: cell-based
Conditions: Dirofilaria immitis, read-out: EC50 (motility inhibition)

`O=C(NN1CCOc2ccccc21)c1cnc2c(-c3cc(F)cc(F)c3F)cccc2c1N1CCSCC1` [Example 5.10, N-(2,3-dihydro-1,4-benzoxazin-4-yl)-4-thiomorpholino-8-(2,3,5-trifluorophenyl)quinoline-3-carboxamide] was tested, and the EC50 was under 0.1 µg/mL.
